Measurements published in patent US20200290950A1, “ALKAMIDE COMPOUNDS AND USES THEREOF” (NORTH CAROLINA STATE UNIVERSITY, priority 2017, published 2020).

Key:
RAW 264.7 cells = settings: LPS-stimulated RAW 264.7 cells, literature; cited from earlier work
RBL-2H3 cells = test: PGE2 production, EIA, 8 hrs; type: cell-based, rat; settings: 1 μM A23187, only at 100 μM
Experimental: FIGS. 6A-6B. A15 inhibits de novo production of TNF-α and PGE2 from RBL-2H3 cells. RBL-2H3 cells were plated and incubated overnight prior to stimulation. Cells were stimulated with 1 μM A23187 in combination with the indicated doses of A15. Supernatants were collected 8 hrs later and TNF-α (FIG. 6A) or PGE2 (FIG. 6B) levels were measured using ELISA kits. Data shown are the means±SEM from 3 independent experiments. Statistical analysis was performed using a one-way ANOVA with Dunnett's post-hoc test, *p<0.05, **p<0.01, ***p<0.001.
Bone marrow cells were isolated from the femurs of 6-8 week old C57BL/6 mice and cultured in RPMI-1640 containing 10% heat-inactivated FBS, non-essential amino acids, HEPES buffer, sodium pyruvate, 100 U/mL penicillin, 100 μg/mL streptomycin, 5 ng/mL mIL-3, and 5 ng/mL mSCF for 4-6 weeks until mature, bone marrow-derived mast cells (BMMCs) were obtained, as described previously (Kuehn et al., 2010). Differentiation into >98% mast cells was confirmed through toluidine blue staining (1%, pH 1). RBL-2H3, RAW 264.7, and Jurkat cells were obtained from the American Type Culture Collection (Manassas, Va.). […] Optical density was determined using a Synergy HT microplate reader (BioTek Instruments, Inc, Winooski, Vt.). […]

BMMCs = test: Toluidine blue staining of granules in BMMCs; type: cell-based, mouse
Experimental: FIG. 2. A15 inhibits granule release from BMMCs. […] BMMCs were cytocentrifuged onto a glass slide, fixed, stained with toluidine blue (1%, pH<1) for 30 min, and washed before observing microscopically. Images were acquired at 400× magnification and are representative.

TRPV1 = molecular target: T1, TRPV1 (Mus musculus, UniProt Q704Y3); test: Calcium response of DRG neurons to capsaicin; type: cell-based; settings: cultured DRG neurons, fluorescence microscopy
T1 construct: The receptors TRPA1 and TRPV1 are expressed on neurons; from tissue; host or cells: primary dorsal root ganglion neurons from mice
T1 sequence (Q704Y3 whole entry): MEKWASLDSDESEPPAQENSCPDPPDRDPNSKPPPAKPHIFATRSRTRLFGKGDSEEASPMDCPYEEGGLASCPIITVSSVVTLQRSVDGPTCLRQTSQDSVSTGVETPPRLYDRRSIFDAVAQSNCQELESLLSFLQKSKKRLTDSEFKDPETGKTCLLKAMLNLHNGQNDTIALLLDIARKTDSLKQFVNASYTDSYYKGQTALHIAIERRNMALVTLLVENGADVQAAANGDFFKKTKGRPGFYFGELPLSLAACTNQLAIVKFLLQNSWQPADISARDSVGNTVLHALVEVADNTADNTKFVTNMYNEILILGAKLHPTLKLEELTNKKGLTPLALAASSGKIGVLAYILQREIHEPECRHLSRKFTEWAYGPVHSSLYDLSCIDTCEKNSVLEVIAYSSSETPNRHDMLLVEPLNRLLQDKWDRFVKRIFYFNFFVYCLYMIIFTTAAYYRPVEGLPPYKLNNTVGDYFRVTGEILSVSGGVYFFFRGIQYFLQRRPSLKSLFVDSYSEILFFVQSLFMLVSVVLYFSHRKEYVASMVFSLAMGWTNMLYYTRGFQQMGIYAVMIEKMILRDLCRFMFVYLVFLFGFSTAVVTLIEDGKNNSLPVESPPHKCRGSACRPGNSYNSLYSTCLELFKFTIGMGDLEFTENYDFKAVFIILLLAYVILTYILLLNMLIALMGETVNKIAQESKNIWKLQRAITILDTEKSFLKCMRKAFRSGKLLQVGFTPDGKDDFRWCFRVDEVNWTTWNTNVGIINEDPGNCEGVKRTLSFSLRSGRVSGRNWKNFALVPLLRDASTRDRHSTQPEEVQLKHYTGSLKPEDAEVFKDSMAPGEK
Source text: FIG. 11. Calcium response from DRG sensory neurons to alkamide of transient receptors. Mustard a TRPA1-receptor agonist activates DRG neurons in gray (A) and capsaicin, an agonist for TRPV1-receptors in the DRG neurons in red (B). Ligand A15 inhibits both TRPA1 and TRPV1 receptors activation in orange; however, 85Y a synthetic ligand only reduces the inhibition of TRPA1 but not TRPV1 receptors in blue. Total number of neurons (n)=135-145; p≤0.05.
Several different model systems were utilized for these experiments. In one model, dorsal root ganglia were obtained from mice and the neurons cultured in vitro. The neurons were then stimulated in the presence/absence of A15 and YM8-85 and the calcium responses monitored by fluorescence microscopy. In the second model, the alkamides were applied to mouse skin in mineral oil. The reactions of these mice to heat, cold, and tactile stimulation was then compared with mice that had not received treatment with A15. […] Alkamides were applied to sensitized animals and then ear swelling and bouts of scratching were monitored.
In vitro DRG neuron responses. […] Neurons were stimulated with mustard (allyl isothiocyanate) (A) an agonist for the receptor TRPA-1 or capsaicin (B) an agonist for the receptor TRPV-1 and calcium responses were measured in individual neurons by fluorescence microscopy. […]

[1] = tested on: RAW 264.7 macrophage-like cells; test: Fluo-4 calcium assay, RAW 264.7 cells; type: cell-based, mouse; settings: 1 μM A23187, 100 μM A15, at 1 min
Experimental: FIGS. 4A-4D. A15 inhibits A23187-stimulated calcium influx in RAW 264.7 and Jurkat cells. RAW 264.7 (FIG. 4A-4B) or Jurkat cells (FIG. 4C-4D) were loaded with fluo-4 AM using the Fluo-4 AM Direct™ Calcium Assay Kit and fluorescence was measured on a microplate reader. Cells were stimulated with 1 μM A23187 in combination with vehicle only or 100 μM A15. Bar graphs represent the means±SEM of the Δ in RFU's at 1 min post-A23187 stimulation from 3 independent experiments. Statistical analysis was performed using an unpaired Student's t-test, *p<0.05.
RBL-2H3, BMMC, RAW 264.7, or Jurkat cells were plated in clear-bottom, black, 96-well plates (BioExpress, Kaysville, Utah) and incubated overnight with media only or media containing IgE anti-DNP. […] Prior to stimulation, baseline fluorescent readings were measured from triplicate wells in 5 s intervals for 1 min using a Synergy HT microplate reader with 485/20 nm excitation and 528/20 nm emission filters. Cells were then treated with either 1 μM A23187 or 50 ng/mL DNP-BSA prepared in calcium- and magnesium-containing or calcium- and magnesium-free HBSS with 20 mM HEPES, and fluorescence was measured in 10 s intervals for 2 min. […] The average baseline fluorescence of each well was subtracted from the stimulated fluorescent values to calculate the change (Δ) in RFU's and graphed as shown.

DRG neuron calcium response to capsaicin (TRPV1 agonist) (TRPV1): inhibited
SMILES: CCCCCCC/C=C/C=C/C(=O)NCC(C)C [A15, (2E,4E)-N-Isobutyldodeca-2,4-dienamide]
TNF-α production (RAW 264.7 cells): best inhibitors | production of PGE2 (RBL-2H3 cells): weakly inhibited | toluidine blue staining, compound alone (BMMCs; 100 μM A15 alone, 30 min): did not noticeably affect staining | A23187-induced reduction of toluidine blue staining (granule release) (BMMCs; 100 μM A15 with 1 μM A23187, 30 min): blocked | suppression of calcium influx [1]: 60.2%
